Assay [1] concerns pyruvate dehydrogenase (PDH). In words: Pyruvate dehydrogenase (PDH) activity assay, gastrocnemius muscle lysates of DIO mice. Type of assay: in vivo, C57BL/6J mice. The note with it: ad libitum HFD mice, AvoB 100 mg/kg b.w. twice weekly, endpoint. The protocol: After mice were euthanized, muscle tissues were freeze-clamped and flash-frozen in liquid nitrogen. The PDH activity from flash-frozen whole gastrocnemius muscle lysates was measured using a colorimetric microplate assay kit (ab109902, Abcam, Cambridge, MA, USA) following the manufacturer's protocol and as previously described (see reference number 12). Briefly, PDH proteins from whole gastrocnemius muscle lysates (lysed in the presence of 10 mM sodium fluoride (NaF) preserve the phosphorylated status of PDH or to determine native PDH activity as a result of HFD feeding) were immunocaptured on a microplate by loading equal amounts of protein for each sample. PDH activity was then determined spectrophotometrically by monitoring the reduction of NAD+ to NADH, coupled to the reduction of a reporter dye at an absorbance of 450 nm.

Another assay relates to C2C12 myotubes. In words: High resolution respirometry in C2C12 myotubes. Type of assay: cell-based, mouse. The following applies: 25 μM AvoB. How it is done:
Cells treated with test compounds for 24 h were trypsinized, counted, and resuspended in phosphate buffer saline (PBS). High-resolution O2 consumption measurements were conducted in 2 ml of respiration medium (PBS, pH 7.5, stir speed 750 rpm) using the Oroboros Oxygraph-2k (Oroboros Instruments, Corp., Innsbruck, Austria) set to 37° C. with a gain of 2 in both chambers. Briefly, after the injection of 5 million treated INS-1 (832/13) cells or C2C12 myotubes per chamber, basal respiration was measured once steady-state respiratory flux was obtained; this represents coupled respiration fueled by available substrates from the incubation with test compounds. Uncoupled respiration was then measured following addition of the ATP synthase inhibitor oligomycin (0.25 μM). This was followed by measuring maximal respiratory rate by stepwise titration of carbonyl cyanide p-trifluoromethoxy phenyl hydrazone (FCCP; within 0.1-0.25 μM) in the presence of 1 mmol/L pyruvate. […] Data was recorded with DatLab software (Oroboros Instruments, Innsbruck, Austria), oxygen consumption at each step of the protocol was normalized to vehicle control and illustrated in histograms. For all HRR protocols, cell viability was determined after trypsinization and also after end of HRR runs via trypan blue cell staining and counting using a hemocytometer. […]

The test system of assay [2] is insulin signaling (pAkt-Ser473), MAPK, AMPK. Description: Immunoblotting (pAkt, pERK1/2, pP38, pAMPKα, PGC-1α) and NAO mitochondrial mass in C2C12 myotubes. Type of assay: cell-based, mouse. How it is done: For all ROS studies, INS-1 (832/13) cells and C2C12 myotubes were treated with or without palmitate and FAO inhibitors for 24 h in low glucose cell culture media as described for the FAO assay. After treatment, cells were trypsinized and re-suspended in PBS containing 5 μM of the fluorescent dye MitoSOX® (Molecular Probes, Invitrogen) and allowed to incubate for 5-15 minutes in a humidified atmosphere containing 5% CO2 at 37° C. Cells were then washed in PBS, placed in a 96 well plate and fluorescence was measured by flow cytometry. ROS was quantified by normalizing the mean fluorescence values of live gated cells to vehicle control. Mitochondrial membrane potential (MMP) in INS-1 (832/13) and C2C12 myotubes was measured using the cationic fluorescent dye JC-1 (Molecular Probes). JC-1 accumulates in the mitochondrial matrix in an MMP dependent manner. JC-1 fluoresces green in the cytosol where it exists as a monomer, after entering the mitochondria JC-1 monomers form J aggregates and fluoresce red, thus the red/green fluorescence ratio is used to determine MMP. After all treatments, cells were washed, trypsinized and re-suspended in PBS containing 1 μM JC-1 and allowed to incubate for 5-10 minutes in a humidified atmosphere containing 5% CO2 at 37° C. Cells were then washed in PBS, placed in a 96 well plate and fluorescence was measured by flow cytometry. MMP was quantified by normalizing the mean fluorescence values of live gated cells to vehicle control. Mitochondrial mass was measured using 10-N-nonyl acridine orange (NAO; Enzo Life Sciences, ENZ-52306), which accumulates in the mitochondria in an MMP-independent manner where it binds to cardiolipin in the inner mitochondrial membrane. Cells were treated, washed and collected as described and incubated with 0.35 μM NAO and green fluorescence was measured using flow cytometry. In all analysis (ROS, MMP and mitochondrial mass), forward vs side scatter plots were gated to exclude debris (e.g., dead cells), as cell death is associated with increased ROS and altered membrane potentials. For all cell culture experiments, after drug treatments cells were washed with chilled phosphate-buffered saline (PBS), and lysed in chilled lysis buffer with 1× protease inhibitor cocktail (Sigma). RIPA lysis buffer (Sigma-Aldrich) was used for INS-1 (832/13) cells and muscle lysis buffer for C2C12 myotubes (20 mM HEPES, 10 mM NaCl, 1.5 mM MgCl2, 1 mM DTT, 20% glycerol, and 0.1% Triton-X100). Cells were scraped, mechanically homogenized using a syringe and centrifuged at 14,000×g for 20 min at 4° C. and the supernatants were collected. For preparation of all gastrocnemius muscle lysates, 10 mg frozen tissue (wet weight) was washed in chilled PBS, placed in a dounce homogenizer, lysed in muscle lysis buffer and centrifuged at 14,000×g for 20 min at 4° C. and the supernatant was collected. Protein content for cell and tissue lysates was measured using the BCA protein assay kit (ThermoFisher) according to manufacturer's protocol. Thirty μg protein lysates were prepared in loading buffer and immunoblotting was performed by heating lysates for 5 minutes at 95° C. and subjecting them to gel electrophoresis on 10% SDS-polyacrylamide gels at 150 V for 75 minutes. Using a semi-dry transfer apparatus (Bio-Rad) the gels were then transferred at 25V for 45 minutes to a PVDF membrane and blocked with 5% BSA (Sigma) in tris-buffered saline-tween (TBS-T) for 1 hour. […]
In general terms: In western blotting, separated proteins are transferred to a membrane and probed.

For the substance avocatin B [AvoB], the “Native PDH activity in gastrocnemius muscle” value in assay [1] was “restored to that of lean, STD mice”. Moreover, the “Glucose oxidation by HRR after 10 mM glucose (metabolic flexibility)” value in the assay with C2C12 myotubes (0.25 mM palmitate 24 h, then 10 mM glucose 15 min) is recorded as “increased”. In the assay with C2C12 myotubes (0.25 mM palmitate-BSA/1 mM L-carnitine, 24 h), the “Palmitate supported respiration (OCR, HRR)” value was “inhibited palmitate supported basal and maximal-uncoupled respiration”. In addition, the “Palmitate induced phosphorylation of MAPK ERK1/2 and P38” value in assay [2] (25 μM AvoB, 0.5 mM palmitate, 24 h) is recorded as “reduce palmitate induced phosphorylation”. Also, in assay [2] (25 μM AvoB, 24 h), the “AMPK activation (pAMPKα-Thr172)” value was “independent of AMPK activation” and the “Mitochondrial biogenesis (PGC-1α protein, NAO dye)” value is reported as “independent”. Further, the “Insulin signaling (insulin stimulated phosphorylation of AKT Ser473)” value in assay [2] (0.5 mM palmitate 24 h, 100 nM insulin 30 min, AvoB 25 μM, DCA 1 mM, TRI 25 μM) is listed as “restore the suppressive effects of lipotoxicity on insulin stimulated phosphorylation of AKT^Ser473”.

The record behind these values is patent US12390423B2 (priority 2019, dated 2025).
